How the values were obtained:
[1] = excess molar enthalpy (molar enthalpy of mixing); xn = mol fraction of the nth substance listed; conditions: 298.15 K, 101 kPa, Liquid
[2] = 298.15 K; 101.33 kPa; Liquid

C[C@@H]1COC(=O)O1 [(R)-4-methyl-1,3-dioxolan-2-one] + C[C@H]1COC(=O)O1
[1]
Conditions | excess molar enthalpy [kcal/mol]
x2 = 0.02206 | -0.000169
x2 = 0.04317 | -0.000327
x2 = 0.06338 | -0.00048
x2 = 0.06919 | -0.00046
x2 = 0.08276 | -0.000615
x2 = 0.1014 | -0.000734
x2 = 0.1192 | -0.000848
x2 = 0.1294 | -0.000859
x2 = 0.1364 | -0.000953
x2 = 0.1529 | -0.00105
x2 = 0.1688 | -0.00114
x2 = 0.1823 | -0.00115
x2 = 0.1841 | -0.00122
x2 = 0.1988 | -0.00129
x2 = 0.213 | -0.00136
x2 = 0.2268 | -0.00142
x2 = 0.2292 | -0.00143
x2 = 0.2709 | -0.00163
x2 = 0.3084 | -0.0017
x2 = 0.3422 | -0.00178
x2 = 0.3673 | -0.00185
x2 = 0.3729 | -0.00186
x2 = 0.3988 | -0.00191
x2 = 0.4008 | -0.00191
x2 = 0.4264 | -0.00196
x2 = 0.4363 | -0.00197
x2 = 0.4366 | -0.00198
x2 = 0.4627 | -0.00203
x2 = 0.4815 | -0.00201
x2 = 0.4921 | -0.00205
x2 = 0.5254 | -0.00205
x2 = 0.5372 | -0.00199
x2 = 0.5551 | -0.002
x2 = 0.5959 | -0.00197
x2 = 0.6186 | -0.00195
x2 = 0.6431 | -0.00192
x2 = 0.6596 | -0.00184
x2 = 0.6697 | -0.00184
x2 = 0.6985 | -0.00176
x2 = 0.699 | -0.0017
x2 = 0.7209 | -0.00166
x2 = 0.73 | -0.00162
x2 = 0.7641 | -0.00146
x2 = 0.7644 | -0.00151
x2 = 0.7782 | -0.0014
x2 = 0.7929 | -0.00133
x2 = 0.7949 | -0.00133
x2 = 0.7997 | -0.00129
x2 = 0.8022 | -0.00132
x2 = 0.8081 | -0.00126
x2 = 0.8122 | -0.00124
x2 = 0.8228 | -0.00114
x2 = 0.8239 | -0.00118
x2 = 0.8252 | -0.00118
x2 = 0.8385 | -0.00111
x2 = 0.8404 | -0.00109
x2 = 0.8439 | -0.00109
x2 = 0.8522 | -0.00104
x2 = 0.8575 | -0.000996
x2 = 0.8665 | -0.000943
x2 = 0.8753 | -0.00089
x2 = 0.8812 | -0.000858
x2 = 0.8857 | -0.000833
x2 = 0.8902 | -0.000801
x2 = 0.8939 | -0.000772
x2 = 0.8964 | -0.000764
x2 = 0.9121 | -0.00066
x2 = 0.9133 | -0.000646
x2 = 0.9285 | -0.000551
x2 = 0.9335 | -0.000502
x2 = 0.9419 | -0.00044
x2 = 0.9454 | -0.000425
x2 = 0.9547 | -0.00035
x2 = 0.9629 | -0.000295
x2 = 0.9768 | -0.000184
x2 = 0.9811 | -0.000151

C[C@@H](O)c1ccccc1 [(R)-(+)-1-phenylethanol]
Conditions | mass density [kg/m3]
[2] | 1012.4

C[C@@H](NCc1ccccc1)c1ccccc1 [(R)-(+)-N-benzyl-1-phenylethylamine]
Conditions | mass density [kg/m3]
[2] | 1007.7

C[C@@H](N)c1ccccc1 [(R)-(+)-α-methylbenzylamine]
Conditions | mass density [kg/m3]
[2] | 965.38

C[C@H]1COC(=O)O1 [(S)-4-methyl-1,3-dioxolan-2-one]
Conditions | mass density [kg/m3]
[2] | 1199.5

C[C@H](O)c1ccccc1 [(S)-(-)-1-phenylethanol]
Conditions | mass density [kg/m3]
[2] | 1012.3

C[C@H](O)c1ccccc1 [(S)-(-)-1-phenylethanol] + C[C@@H](O)c1ccccc1
[1]
Conditions | excess molar enthalpy [kcal/mol]
x1 = 0.07558 | 0.000755
x1 = 0.09137 | 0.000905
x1 = 0.1405 | 0.00127
x1 = 0.1675 | 0.0015
x1 = 0.197 | 0.00168
x1 = 0.2318 | 0.00184
x1 = 0.2464 | 0.00196
x1 = 0.2869 | 0.00213
x1 = 0.2902 | 0.00216
x1 = 0.3291 | 0.0023
x1 = 0.3346 | 0.0023
x1 = 0.364 | 0.00241
x1 = 0.3763 | 0.0024
x1 = 0.3954 | 0.00247
x1 = 0.4131 | 0.00246
x1 = 0.4239 | 0.00251
x1 = 0.4458 | 0.0025
x1 = 0.4498 | 0.00253
x1 = 0.4751 | 0.00252
x1 = 0.4753 | 0.00249
x1 = 0.497 | 0.00252
x1 = 0.5014 | 0.00252
x1 = 0.5208 | 0.00254
x1 = 0.5252 | 0.00251
x1 = 0.5469 | 0.0025
x1 = 0.547 | 0.00253
x1 = 0.5668 | 0.00252
x1 = 0.576 | 0.00251
x1 = 0.5993 | 0.00251
x1 = 0.6083 | 0.00247
x1 = 0.6357 | 0.00241
x1 = 0.6443 | 0.00238
x1 = 0.6768 | 0.00229
x1 = 0.6849 | 0.00227
x1 = 0.7235 | 0.00214
x1 = 0.731 | 0.00209
x1 = 0.7773 | 0.0019
x1 = 0.7837 | 0.00183
x1 = 0.8396 | 0.00144
x1 = 0.8446 | 0.00149
x1 = 0.9128 | 0.000857
x1 = 0.9158 | 0.000837

C[C@H](N)c1ccccc1 [(S)-(-)-αmethylbenzylamine]
Conditions | mass density [kg/m3]
[2] | 965.49

C[C@H](N)c1ccccc1 [(S)-(-)-αmethylbenzylamine] + C[C@@H](N)c1ccccc1
[1]
Conditions | excess molar enthalpy [kcal/mol]
x1 = 0.0173 | 0.000147
x1 = 0.03401 | 0.000288
x1 = 0.05015 | 0.000417
x1 = 0.06577 | 0.000537
x1 = 0.08089 | 0.000641
x1 = 0.09552 | 0.000748
x1 = 0.1097 | 0.000848
x1 = 0.1234 | 0.000939
x1 = 0.1368 | 0.00102
x1 = 0.1408 | 0.00107
x1 = 0.1497 | 0.0011
x1 = 0.1622 | 0.00119
x1 = 0.1744 | 0.00126
x1 = 0.1862 | 0.00133
x1 = 0.2469 | 0.00163
x1 = 0.3297 | 0.00195
x1 = 0.384 | 0.00208
x1 = 0.4161 | 0.00213
x1 = 0.4539 | 0.00216
x1 = 0.555 | 0.00216
x1 = 0.6244 | 0.00208
x1 = 0.7138 | 0.00181
x1 = 0.8027 | 0.00132
x1 = 0.815 | 0.00125
x1 = 0.841 | 0.0011
x1 = 0.8546 | 0.00102
x1 = 0.8686 | 0.000935
x1 = 0.8831 | 0.00084
x1 = 0.8981 | 0.00074
x1 = 0.9136 | 0.000631
x1 = 0.9297 | 0.000527
x1 = 0.9463 | 0.000409
x1 = 0.9636 | 0.000273
x1 = 0.9814 | 0.000116

C[C@H](NCc1ccccc1)c1ccccc1 [(S)-N-benzyl-1-phenylethylamine]
Conditions | mass density [kg/m3]
[2] | 1007.9

C[C@H](NCc1ccccc1)c1ccccc1 [(S)-N-benzyl-1-phenylethylamine] + C[C@@H](NCc1ccccc1)c1ccccc1
[1]
Conditions | excess molar enthalpy [kcal/mol]
x1 = 0.05697 | -0.000214
x1 = 0.09481 | -0.00033
x1 = 0.1905 | -0.000609
x1 = 0.2961 | -0.000821
x1 = 0.4009 | -0.000962
x1 = 0.5331 | -0.00102
x1 = 0.5712 | -0.00101
x1 = 0.6151 | -0.000962
x1 = 0.7271 | -0.000831
x1 = 0.7998 | -0.000686
x1 = 0.8805 | -0.000439
x1 = 0.9576 | -0.000186

CCCC(=O)OC[C@H]1CO1 [R(-)-2,3-epoxypropyl butanoate]
Conditions | mass density [kg/m3]
[2] | 1036.3

CCCC(=O)OC[C@@H]1CO1 [S-(-)-glycidyl butyrate]
Conditions | mass density [kg/m3]
[2] | 1029.7

From the NIST ThermoML archive (doi:10.1016/j.jct.2005.10.019)
